Assay results from ChEMBL document CHEMBL3044796, “Design, synthesis, and biologic evaluation of some novel N-arylpyrazole derivatives as cytotoxic agents” (Med Chem Res, 2013).

Legend:
[1] = test system: HL-60; assay: Cytotoxicity against human HL60 after 48 hrs by MTT assay; assay type: functional, cell-based; conditions: HL-60, 48 h
[2] = test system: KB; assay: Cytotoxicity against human KB after 48 hrs by MTT assay; assay type: functional, cell-based
[3] = test system: BGC-823; assay: Cytotoxicity against human BGC823 after 48 hrs by MTT assay; assay type: functional, cell-based; conditions: BGC-823, 48 h
[4] = test system: Bel-7402; assay: Ratio of cisplatin IC50 to compound IC50 for human Bel7402 cells; assay type: functional
[5] = test system: Bel-7402; assay: Cytotoxicity against human Bel7402 after 48 hrs by MTT assay; assay type: functional, cell-based; conditions: Bel-7402, 48 h

**Q.** What does the source list for `CCCCCCCCOc1cc(-c2c(C)nn(-c3ccc([N+](=O)[O-])cc3)c2C)cc(-c2c(C)nn(-c3ccc([N+](=O)[O-])cc3)c2C)c1`?
**A.** IC50 [1]: 7.91 µM; IC50 [2]: 6.31 µM; IC50 [3]: 8.4 µM; Ratio IC50 [4]: 1.5; IC50 [5]: 5.22 µM

**Q.** What does the source list for `Cc1nn(-c2ccc([N+](=O)[O-])cc2)c(C)c1-c1cccc(-c2c(C)nn(-c3ccc([N+](=O)[O-])cc3)c2C)c1`?
**A.** IC50 [1]: 10.6 µM; IC50 [2]: 10.1 µM; IC50 [3]: 11.9 µM; IC50 [5]: 11.8 µM

**Q.** What does the source list for `O=[N+]([O-])c1ccc(-n2cc(-c3ccncc3)cn2)cc1`?
**A.** IC50 [1]: 17.8 µM; IC50 [2]: 19.2 µM; IC50 [3]: 20.8 µM; IC50 [5]: 23.2 µM

**Q.** Which IC50 [1] does the source give for `Cc1nn(-c2ccc([N+](=O)[O-])cc2)c(C)c1-c1ccccc1-c1c(C)nn(-c2ccc([N+](=O)[O-])cc2)c1C` here?
**A.** 16.2 µM

**Q.** And the IC50 [2]?
**A.** 25.6 µM

**Q.** What about the IC50 [3] of the same molecule?
**A.** 25.4 µM

**Q.** And the IC50 [5]?
**A.** 19.9 µM

**Q.** For `O=[N+]([O-])c1ccc(-c2cnn(-c3ccc([N+](=O)[O-])cc3)c2)cc1`, which IC50 [1] is on record?
**A.** 8.78 µM

**Q.** And the IC50 [2]?
**A.** 8.4 µM

**Q.** And the IC50 [3]?
**A.** 11.9 µM

**Q.** And the IC50 [5]?
**A.** 9.48 µM

**Q.** How did the IC50 [1] turn out when `O=[N+]([O-])c1ccc(-n2cc(-c3ccc(C(F)(F)F)cc3)cn2)cc1` was run?
**A.** 17.3 µM

**Q.** What about the IC50 [2] of the same molecule?
**A.** 21.3 µM

**Q.** What about the IC50 [3] of the same molecule?
**A.** 13.8 µM

**Q.** And the IC50 [5]?
**A.** 7.15 µM

**Q.** Which results are given for `O=[N+]([O-])c1ccc(-n2cc(-c3cc(C(F)(F)F)cc(C(F)(F)F)c3)cn2)cc1`?
**A.** IC50 [1]: 11.4 µM; IC50 [2]: 12 µM; IC50 [3]: 18.5 µM; IC50 [5]: 7.39 µM
